{"source": "patent US7192925B2", "about": "“Scorpion peptide as hypotensive agent” (Universidade Federal de Minas Gerais, priority 2002, dated 2007)", "key": {"[1]": {"system": "arterial blood pressure of Wistar rats", "test": "Hypotensive activity of the peptide in biological assays on rats", "type": "in vivo, rat", "conditions": "native and synthetic peptide", "experimental": "(§1) Wistar rats, weighting 300±20 g were used, waked or anesthetized, to assess the hypotensive properties of peptides. Bradykinin (Bachem, Co) and TsHpt-I were dissolved in sterile isotonic saline (0.9% NaCl) immediately before use.\n(§2) “In vivo” experiments using waked animals: a day before the experiment, rats were anesthetized with ether and a polyethylene catheter (PE-10 connected to PE-50) was inserted into the abdominal aorta through the femoral artery for blood pressure measurements. For intravenous injections, a polyethylene cannula was implanted into the femoral vein. Arterial blood pressure and heart rate were monitored by a solid-state strain-gauge transducer. All variables were recorded continuously on a computer through a data acquisition system, Biopac®, and processed by the Acknowledge® software.\n(§3) Bradykinin, 1 μg or 2 μg, was injected and the response measured as variation on average arterial pressure. Hypotensive effect of TsHpt-I (10 μg) alone was measured after Bradykinin. The hypotensive effect of bradykinin (1 μg) was then re-evaluated after 5 and 10 minutes following the injection of TsHpt-I.\n“In vivo” experiments using anesthetized rats: the arterial blood pressure and heart rate were monitored continuously after insertion of catheters as described above. Rats were previously anesthetized with urethane, […], (via i.p.). […]"}, "[2]": {"system": "hypotensive effect of bradykinin (average arterial pressure) in Wistar rats", "test": "Bradykinin potentiation in vivo: hypotensive effect of bradykinin re-evaluated after TsHpt-I injection", "parameters": "species or system rat", "experimental": "as §1, §2, §3\n“In vivo” experiments using anesthetized rats: the arterial blood pressure and heart rate were monitored continuously after insertion of catheters as described above. Rats were previously anesthetized with urethane, 1.2 mg/kg, (via i.p.).\nThe hypotensive effect of intravenous injections of bradykinin, 1 μg or 2 μg was measured, followed by the measurement of hypotensive effect of TsHpt-I (10 μg). The hypotensive effect of the bradykinin (1 μg) was then re-evaluated after 1, 5, 10, 15, 20 and 30 minutes.\nThe potentiating unit—i.e., the amount of peptide that is able to double the activity of a single dose of bradykinin—of TsHpt-I was 10 μg. At this dose TsHpt-I was able to double the activity of a single dose of bradykinin for almost 20 minutes in anesthetized animals."}}, "note": "“Also recorded” adds a separate entry of the source.", "data": [{"substance": "TsHpt-I (AEIDFSGIPEDIIKQIKETNAKPPA; listed as Tityus serrulatus)", "values": [{"measurement": "hypotensive activity / ability to decrease blood pressure (in words)", "setting": "[1]", "result": "strong ability to decrease blood pressure; also recorded: same hypotensive activity as the native molecule"}, {"measurement": "time for which TsHpt-I was able to double the activity of a single dose of bradykinin", "setting": "[2]; TsHpt-I 10 μg, anesthetized animals (urethane)", "result": "~20", "unit": "min"}, {"measurement": "potentiation of bradykinin effects (in words)", "setting": "[2]; rat, in vivo", "result": "able to potentiate bradykinin effects in a strong and long-lasting manner"}, {"measurement": "potentiating unit (amount of peptide that is able to double the activity of a single dose of bradykinin)", "setting": "[2]; waked and anesthetized rats, intravenous injection, bradykinin 1 μg", "result": 10, "unit": "µg"}]}]}
